The values that follow are results of earlier work, collected in patent EP2566462B1, “IMMEDIATE RELEASE FORMULATIONS AND DOSAGE FORMS OF GAMMA-HYDROXYBUTYRATE” (Jazz Pharmaceuticals Inc., priority 2010, dated 2011).

The conditions of series [1]: in man, given orally.
Series [2] concerns patients with hyperkinetic movement disorders including ethanol responsive myoclonus and essential tremor. Particulars: open label, five patients.

Take `O=C([O-])CCCO.[Na+]` [sodium oxybate, Sodium gamma-hydroxybutyrate]: the plasma half-life result in series [1] is reported as “about 45 minutes”. In series [2], the “blinded ratings of ethanol responsive myoclonus and tremor” value was “dose-dependent improvements”; the tolerability result is “tolerated at doses that provided clinical benefit”.
